Patent US20060069132A1, “Azolecarboxamide herbicides” (priority 2004, published 2006)

Key:
canarygrass = experiment: Test C postemergence herbicide test; assay type: in vivo, Phalaris minor
Method: At the same time, plants selected from these crop and weed species and also winter barley (Hordeum vulgare L.), blackgrass (Alopecurus myosuroides Huds.), canarygrass (Phalaris minor Retz.), chickweed (Stellaria media (L.) Vill.), downy bromegrass (Bromus tectorum L.), green foxtail (Setaria viridis (L.) Beauv.), Italian ryegrass (Lolium multiflorum Lam.), wheat (Triticum aestivum L.), wild oat (Avenafatua L.) and windgrass (Apera spica-venti (L.) Beauv.) were treated with postemergence applications of some of the test chemicals formulated in the same manner. Plants ranged in height from 2 to 18 cm (1- to 4-leaf stage) for postemergence treatments. Plant species in the flooded paddy test consisted of rice (Oryza sativa), smallflower umbrella sedge (Cyperus difformis L.), ducksalad (Heteranthera limosa (Sw.) Willd.) and barnyardgrass (Echinochloa crus-galli (L.) Beauv.) grown to the 2-leaf stage for testing. Treated plants and controls were maintained in a greenhouse for 12 to 14 days, after which time all species were compared to controls and visually evaluated. Plant response ratings, summarized in Table C, are based on a scale of 0 to 100 where 0 is no effect and 100 is complete control. A dash (-) response means no test result.

common ragweed = experiment: Test E pre-/postemergence herbicide test; assay type: in vivo, Ambrosia elatior; conditions: Preemergence
Source text: (§1) Seeds of plant species selected from bipinnate beggarticks (Bidens bipinnata L.), hairy beggarticks (Bidens radiata Thuill.), bermudagrass (Cynodon dactylon (L.) Pers.), Surinam grass (Urochloa decumbens (Staph) R. D. Webster, previously named Brachiaria decumbens Stapf), large crabgrass (Digitaria sanguinalis (L.) Scop.), green foxtail (Setaria viridis (L.) P. Beauv.), goosegrass (Eleusine indica (L.) Gaertn.), johnsongrass (Sorghum halepense (L.) Pers.), kochia (Kochia scoparia (L.) Schrad.), pitted morningglory (Ipomoea lacunosa L.), purple nutsedge (Cyperus rotundus L.), common ragweed (Ambrosia elatior L.), mustard (Brassica nigra (L.) W. D. J. Koch), guineagrass (Panicum maximum Jacq.), dallisgrass (Paspalum dilatatum Poir.), barnyardgrass (Echinochloa crus-galli (L). P. Beauv.), southern sandbur (Cenchrus echinatus L.), common sowthistle (Sonchus oleraceous L.), prickly sida (Sida spinosa L.), Italian ryegrass (Lolium multiflorum Lam.), common purslane (Portulaca oleracea L.), broadleaf signalgrass (Brachiaria platyphylla (Griseb.) Nash), common groundsel (Senecio vulgaris L.), common chickweed (Stellaria media (L.) Vill/Cyr.), tropical spiderwort (Commelina benghalensis L.), annual bluegrass (Poa annua L.), downy bromegrass (Bromus tectorum L.), itchgrass (Rottboellia cochinchinensis (L.) L.f.), quackgrass (Elytrigia repens (L.) Nevski), Canada horseweed (Erigeron Canadensis L.), field bindweed (Convolvulus arvensis L.), spotted spurge (Euphorbia maculata L.), common mallow (Malva sylvestris (=s silvestris) L.), and Russian thistle (Salsola kali L. ssp. Ruthenica (Iljin) Soo) were planted and treated preemergence with test chemicals formulated in a non-phytotoxic solvent mixture which included a surfactant.
(§2) At the same time, plants selected from these weed species were treated with postemergence applications of some of the test chemicals formulated in the same manner. Plants ranged in height from 2 to 18 cm (1- to 4-leaf stage) for postemergence treatments. Treated plants and controls were maintained in a greenhouse for 12 to 14 days, after which time all species were compared to controls and visually evaluated. Plant response ratings, summarized in Table E, are based on a scale of 0 to 100 where 0 is no effect and 100 is complete control. A dash (-) response means no test result.

broadleaf signalgrass = experiment: Test E pre-/postemergence herbicide test; assay type: in vivo, Brachiaria platyphylla; conditions: Preemergence
Source text: as §1, §2

large crabgrass = experiment: Test E pre-/postemergence herbicide test; assay type: in vivo, Digitaria sanguinalis; conditions: Preemergence
Source text: as §1, §2

itchgrass = experiment: Test E pre-/postemergence herbicide test; assay type: in vivo, Rottboellia cochinchinensis; conditions: Preemergence
Source text: as §1, §2

Surinam grass = experiment: Test E pre-/postemergence herbicide test; assay type: in vivo, Urochloa decumbens; conditions: Preemergence
Source text: as §1, §2

guineagrass = experiment: Test E pre-/postemergence herbicide test; assay type: in vivo, Panicum maximum; conditions: Preemergence
Source text: as §1, §2

downy bromegrass = experiment: Test E pre-/postemergence herbicide test; assay type: in vivo, Bromus tectorum; conditions: Preemergence
Source text: as §1, §2

[1] = Postemergence, 250 g ai/ha, scale 0 to 100, 0 no effect, 100 complete control
[2] = postemergence, 125 g ai/ha, scale 0 to 100
[3] = postemergence, 62 g ai/ha, scale 0 to 100
[4] = postemergence, 31 g ai/ha, scale 0 to 100
[5] = Postemergence, 500 g ai/ha, scale 0 to 100, 0 no effect, 100 complete control
[6] = 250 g ai/ha, scale 0 (no effect) to 100 (complete control)
[7] = 500 g ai/ha, scale 0 (no effect) to 100 (complete control)

SMILES | Plant response rating, Canarygrass (canarygrass; [1]) | Plant response rating, Canarygrass (canarygrass; [2]) | Plant response rating, Canarygrass (canarygrass; [3]) | Plant response rating, Canarygrass (canarygrass; [4]) | Plant response rating, Ragweed (common ragweed; 62 g ai/ha, scale 0 to 100) | Plant response rating, Ragweed (common ragweed; 125 g ai/ha, scale 0 to 100) | Plant response rating, Ragweed (common ragweed; [6]) | Plant response rating, Ragweed (common ragweed; [7]) | Plant response rating, Signalgrass (broadleaf signalgrass; 62 g ai/ha, scale 0 to 100) | Plant response rating, Signalgrass (broadleaf signalgrass; 125 g ai/ha, scale 0 to 100) | Plant response rating, Signalgrass (broadleaf signalgrass; [6]) | Plant response rating, Signalgrass (broadleaf signalgrass; [7]) | Plant response rating, Crabgrass, Large (large crabgrass; 62 g ai/ha, scale 0 to 100) | Plant response rating, Crabgrass, Large (large crabgrass; 125 g ai/ha, scale 0 to 100) | Plant response rating, Crabgrass, Large (large crabgrass; [6]) | Plant response rating, Crabgrass, Large (large crabgrass; [7]) | Plant response rating, Itchgrass (itchgrass; 62 g ai/ha, scale 0 to 100) | Plant response rating, Itchgrass (itchgrass; 125 g ai/ha, scale 0 to 100) | Plant response rating, Itchgrass (itchgrass; [6]) | Plant response rating, Itchgrass (itchgrass; [7]) | also measured
CCn1nc(C(C)(C)C)cc1C(=O)Nc1cccc(OC(F)F)c1 [Compound 332] | 60 | 45 | 35 |  |  |  |  |  |  |  |  |  |  |  |  |  |  |  |  |  | Canarygrass plant response rating (canarygrass; Postemergence, 500 g ai/ha, scale 0 to 100): 70
CCn1nc(C(C)(C)C)cc1C(=O)Nc1cc(C(=S)N(C)C)ccn1 [Compound 334] | 45 | 35 | 25 | 20 |  |  |  |  |  |  |  |  |  |  |  |  |  |  |  |  | 
CCNC(=O)c1ccc(F)c(NC(=O)c2c3c(nn2CC)C(C)(C)CC3)c1 [Compound 353] | 10 | 10 | 0 |  |  |  |  |  |  |  |  |  |  |  |  |  |  |  |  |  | Plant response rating, Canarygrass (canarygrass; [5]): 20
CCOC(=O)c1cccc(NC(=O)c2nn(C(C)(C)CC)nc2CC)c1 [Compound 375] | 35 | 35 | 30 | 30 |  |  |  |  |  |  |  |  |  |  |  |  |  |  |  |  | 
CCc1nn(C(C)(C)C)nc1C(=O)Nc1cccc(C(=O)N(C)CC)c1 [Compound 384] | 40 | 35 | 30 | 20 | 0 | 10 | 40 | 40 | 10 | 70 | 80 | 80 | 90 | 100 | 100 | 100 | 40 | 60 | 70 | 85 | Plant response rating, Surinam Grass (Surinam grass; 125 g ai/ha, scale 0 to 100): 60; Plant response rating, Surinam Grass (Surinam grass; [7]): 95; Plant response rating, Guineagrass (guineagrass; 62 g ai/ha, scale 0 to 100): 95; Plant response rating, Guineagrass (guineagrass; 125 g ai/ha, scale 0 to 100): 95; Plant response rating, Guineagrass (guineagrass; [6]): 95; Plant response rating, Guineagrass (guineagrass; [7]): 100; Plant response rating, Bromegrass, Downy (downy bromegrass; 62 g ai/ha, scale 0 to 100): 20; Plant response rating, Bromegrass, Downy (downy bromegrass; 125 g ai/ha, scale 0 to 100): 40; Plant response rating, Bromegrass, Downy (downy bromegrass; [6]): 40; Plant response rating, Bromegrass, Downy (downy bromegrass; [7]): 90
Cc1nn(C(C)(C)C)nc1C(=O)Nc1cccc(C(=O)N2CC=CC2)c1 [Compound 393] | 65 | 65 | 65 | 60 | 0 | 10 | 20 | 80 | 0 | 30 | 75 | 85 | 10 | 80 | 95 | 100 | 0 | 10 | 30 | 60 | Plant response rating, Surinam Grass (Surinam grass; 125 g ai/ha, scale 0 to 100): 20; Plant response rating, Surinam Grass (Surinam grass; [7]): 70; Plant response rating, Guineagrass (guineagrass; 62 g ai/ha, scale 0 to 100): 10; Plant response rating, Guineagrass (guineagrass; 125 g ai/ha, scale 0 to 100): 70; Plant response rating, Guineagrass (guineagrass; [6]): 90; Plant response rating, Guineagrass (guineagrass; [7]): 95; Plant response rating, Bromegrass, Downy (downy bromegrass; 62 g ai/ha, scale 0 to 100): 0; Plant response rating, Bromegrass, Downy (downy bromegrass; 125 g ai/ha, scale 0 to 100): 10; Plant response rating, Bromegrass, Downy (downy bromegrass; [6]): 60; Plant response rating, Bromegrass, Downy (downy bromegrass; [7]): 80
CCc1nn(C(C)(C)C)nc1C(=O)Nc1cccc(C(=S)N(C)C)c1 [Compound 395] |  |  |  |  | 10 | 20 | 60 | 60 | 10 | 75 | 85 | 90 | 80 | 100 | 100 | 100 | 20 | 60 | 60 | 80 | Plant response rating, Surinam Grass (Surinam grass; 125 g ai/ha, scale 0 to 100): 75; Plant response rating, Surinam Grass (Surinam grass; [7]): 90; Plant response rating, Guineagrass (guineagrass; 62 g ai/ha, scale 0 to 100): 80; Plant response rating, Guineagrass (guineagrass; 125 g ai/ha, scale 0 to 100): 100; Plant response rating, Guineagrass (guineagrass; [6]): 100; Plant response rating, Guineagrass (guineagrass; [7]): 100; Plant response rating, Bromegrass, Downy (downy bromegrass; 62 g ai/ha, scale 0 to 100): 40; Plant response rating, Bromegrass, Downy (downy bromegrass; 125 g ai/ha, scale 0 to 100): 40; Plant response rating, Bromegrass, Downy (downy bromegrass; [6]): 95; Plant response rating, Bromegrass, Downy (downy bromegrass; [7]): 95
C=CCNC(=O)c1cccc(NC(=O)c2nn(C(C)(C)C)nc2CC)c1 [Compound 414] | 50 | 45 | 45 |  |  |  |  |  |  |  |  |  |  |  |  |  |  |  |  |  | Plant response rating, Canarygrass (canarygrass; [5]): 60
